Measured values from article PMC4256409, “Role of Phenylalanine and Valine^10 Residues in the Antimicrobial Activity and Cytotoxicity of Piscidin-1” (PLoS ONE, 2014).
Where no end group is shown, it is not given here.

Assays:
E. coli KCTC1682 = format: cell-based, Escherichia coli; conditions: E. coli KCTC1682; broth microdilution, 37°C, 16 h; three independent experiments in triplicate, SD 14.0%
Method: (§1) The antimicrobial activities of the peptides against selected organisms, including three Gram-positive, three Gram-negative, and five antibiotic-resistant bacteria, were determined using a broth microdilution assay. Briefly, single colonies of bacteria and fungi were inoculated into Luria-Bertani (LB) medium and cultured overnight at 37°C. An aliquot of the culture was transferred to 10 mL of fresh LB and incubated for an additional 3–5 h at 37°C until it reached the mid-logarithmic phase. Two-fold serial dilutions of the peptides in 1% peptone were prepared. The serial dilutions (100 µL) were added to 100 µL of cells (2×10^6 colony-forming units (CFU)/mL) in 96-well microtiter plates and incubated at 37°C for 16 h. […] MIC values were calculated as the average of triplicate measurements from three independent assays.

E.coli KCTC2571 = format: cell-based, Escherichia coli; conditions: E.coli KCTC2571; broth microdilution, 37°C, 16 h; three independent experiments in triplicate, SD 14.0%
Method: as §1

P. aeruginosa KCTC1637 = format: cell-based, Pseudomonas aeruginosa; conditions: P. aeruginosa KCTC1637; broth microdilution, 37°C, 16 h; three independent experiments in triplicate, SD 14.0%
Method: as §1

P. aeruginosa KCTC2004 = format: cell-based, Pseudomonas aeruginosa; conditions: P. aeruginosa KCTC2004; broth microdilution, 37°C, 16 h; three independent experiments in triplicate, SD 14.0%
Method: as §1

B. subtilis KCTC3068 = format: cell-based, Bacillus subtilis; conditions: B. subtilis KCTC3068; broth microdilution, 37°C, 16 h; three independent experiments in triplicate, SD 14.0%
Method: as §1

B. subtilis KCTC1021 = format: cell-based, Bacillus subtilis; conditions: B. subtilis KCTC1021; broth microdilution, 37°C, 16 h; three independent experiments in triplicate, SD 14.0%
S. aureus KCTC1621 = format: cell-based, Staphylococcus aureus; conditions: S. aureus KCTC1621; broth microdilution, 37°C, 16 h; three independent experiments in triplicate, SD 14.0%
Method: as §1

S. aureus KCTC1916 = format: cell-based, Staphylococcus aureus; conditions: S. aureus KCTC1916; broth microdilution, 37°C, 16 h; three independent experiments in triplicate, SD 14.0%
Method: as §1

S. aureus KCTC3881 = format: cell-based, Staphylococcus aureus; conditions: S. aureus KCTC3881; broth microdilution, 37°C, 16 h; three independent experiments in triplicate, SD 14.0%
MRSA CCARM 3108 = format: cell-based, Methicillin-resistant S. aureus; conditions: MRSA CCARM 3108; broth microdilution, 37°C, 16 h; three independent experiments in triplicate, SD 14.0%
From the text: Escherichia coli KCTC 1682, E. coli KCTC 2593, E. coli KCTC 2571, Salmonella typhimurium KCTC 1926, Pseudomonas aeruginosa KCTC 1637, P. aeruginosa KCTC 2004, P. aeruginosa KCTC 2513, Bacillus subtilis KCTC 3068, B. subtilis KCTC 1021, B. subtilis KCTC 1022, Staphylococcus epidermidis KCTC 1917, Staphylococcus aureus KCTC 1621, S. aureus KCTC 1916, and S. aureus KCTC 3881 were purchased from the Korean Collection for Type Cultures, Korea Research Institute of Bioscience & Biotechnology (Taejon, Korea). Methicillin-resistant S. aureus (MRSA) (CCARM 3089, CCARM 3090, CCARM 3108, CCARM 3114, and CCARM 3126), multidrug-resistant E. coli (MDREC) (CCARM 1229 and CCARM 1238), multidrug-resistant S. typhimurium (MDRST) (CCARM 8003, CCARM 8007, and CCARM 8009), multidrug-resistant Acinetobacter baumanii (MDRAB) (CCARM 12005, CCARM 12035, CCARM 12036, CCARM 12037), and multidrug-resistant P. aeruginosa (MDRPA) (CCARM 2002, CCARM 2003, CCARM 2095, and CCARM 2163) were obtained from the Culture Collection of Antibiotic-Resistant Microbes (CCARM) at Seoul Women’s University in Korea. The antimicrobial activities of the peptides against selected organisms, including three Gram-positive, three Gram-negative, and five antibiotic-resistant bacteria, were determined using a broth microdilution assay. Briefly, single colonies of bacteria and fungi were inoculated into Luria-Bertani (LB) medium and cultured overnight at 37°C. An aliquot of the culture was transferred to 10 mL of fresh LB and incubated for an additional 3–5 h at 37°C until it reached the mid-logarithmic phase. Two-fold serial dilutions of the peptides in 1% peptone were prepared. The serial dilutions (100 µL) were added to 100 µL of cells (2×10^6 colony-forming units (CFU)/mL) in 96-well microtiter plates and incubated at 37°C for 16 h. […] MIC values were calculated as the average of triplicate measurements from three independent assays.

MRSA CCARM 3114 = format: cell-based, Methicillin-resistant S. aureus; conditions: MRSA CCARM 3114; broth microdilution, 37°C, 16 h; three independent experiments in triplicate, SD 14.0%
MDRST CCARM 8003 = format: cell-based, multidrug-resistant S. typhimurium; conditions: broth microdilution, 37°C, 16 h, three independent experiments in triplicate, SD 14.0%
MDRST CCARM 8007 = format: cell-based, multidrug-resistant S. typhimurium; conditions: broth microdilution, 37°C, 16 h, three independent experiments in triplicate, SD 14.0%
MDREC CCARM 1229 = format: cell-based, multidrug-resistant E. coli; conditions: broth microdilution, 37°C, 16 h, three independent experiments in triplicate, SD 14.0%
Method: as §1

MDREC CCARM 1238 = format: cell-based, multidrug-resistant E. coli; conditions: broth microdilution, 37°C, 16 h, three independent experiments in triplicate, SD 14.0%
MDRAB CCARM 12035 = format: cell-based, multidrug-resistant Acinetobacter baumanii; conditions: broth microdilution, 37°C, 16 h, three independent experiments in triplicate, SD 14.0%
MDRAB CCARM 12037 = format: cell-based, multidrug-resistant Acinetobacter baumanii; conditions: broth microdilution, 37°C, 16 h, three independent experiments in triplicate, SD 14.0%
MDRPA CCARM 2002 = format: cell-based, multidrug-resistant P. aeruginosa; conditions: broth microdilution, 37°C, 16 h, three independent experiments in triplicate, SD 14.0%
Method: as §1

MDRPA CCARM 2003 = format: cell-based, multidrug-resistant P. aeruginosa; conditions: broth microdilution, 37°C, 16 h, three independent experiments in triplicate, SD 14.0%
Method: as §1

MDRPA CCARM 2163 = format: cell-based, multidrug-resistant P. aeruginosa; conditions: broth microdilution, 37°C, 16 h, three independent experiments in triplicate, SD 14.0%
Method: as §1

[1] = test system: Drug-resistant bacterial strains; conditions: average over the 18 drug-resistant bacterial strains of Table 3
Summary of the method: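 Broth microdilution: mid-log bacteria grown in LB, 2×10^6 CFU/mL, mixed 1:1 with two-fold peptide dilutions in 1% peptone, 16 h at 37°C. Strains include KCTC reference isolates and CCARM MRSA and multidrug-resistant E. coli, S. typhimurium, A. baumanii, P. aeruginosa; MIC averaged from triplicates over three independent assays.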

**Q.** Which results are given for “FFHHIFRGIVHVGKTIHRLVTG [Pis-1, reference compound]”?
**A.** MIC (E. coli KCTC1682): 1.0 µM; MIC (E.coli KCTC2571): 1.0 µM; MIC (P. aeruginosa KCTC1637): 2.0 µM; MIC (P. aeruginosa KCTC2004): 2.0 µM; MIC (B. subtilis KCTC3068): 1.0 µM; MIC (B. subtilis KCTC1021): 2.0 µM; MIC (S. aureus KCTC1621): 1.0 µM; MIC (S. aureus KCTC1916): 1.0 µM; MIC (S. aureus KCTC3881): 2.0 µM; MIC (MRSA CCARM 3108): 4.0 µM; MIC (MRSA CCARM 3114): 4.0 µM; MIC (MDRST CCARM 8003): 4.0 µM; MIC (MDRST CCARM 8007): 4.0 µM; MIC (MDREC CCARM 1229): 4.0 µM; MIC (MDREC CCARM 1238): 4.0 µM; MIC (MDRAB CCARM 12035): 2.0 µM; MIC (MDRAB CCARM 12037): 2.0 µM; MIC (MDRPA CCARM 2002): 2.0 µM; MIC (MDRPA CCARM 2003): 2.0 µM; MIC (MDRPA CCARM 2163): 2.0 µM; Average MIC [1]: 3.6 µM
